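Following 48 hours of exposure in 96-well plates, responses at five concentrations were used to interpolate endpoints linearly. Here, GI50 denotes the concentration required for 50% inhibition of growth.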 Activity calls are given as the source filed them. No stated cut-off is given here; in the data, active = GI50 up to about 1.1 µM and inactive = higher.
Experiments:
Experiment in all cases: NCI tumour cell line growth inhibition, 48 h
HCC 2998 = system: HCC 2998
LOX IMVI = system: LOX IMVI
SNB-19 = system: SNB-19
HL-60 = system: HL-60
NCI-H226 = system: NCI-H226
LXFL 529 = system: LXFL 529
SK-MEL-28 = system: SK-MEL-28
SNB-75 = system: SNB-75
NCI-H460 = system: NCI-H460
KM12 = system: KM12
SW-620 = system: SW-620
EKVX = system: EKVX
KM-20L2 = system: KM-20L2
HT-29 = system: HT-29
A549 = system: A549
UO-31 = system: UO-31
TK-10 = system: TK-10
DLD-1 = system: DLD-1
DMS-273 = system: DMS-273
HCT-116 = system: HCT-116
OVCAR-4 = system: OVCAR-4
UACC-257 = system: UACC-257
SF-268 = system: SF-268
SK-MEL-2 = system: SK-MEL-2
SN12C = system: SN12C
M14 = system: M14
HOP-62 = system: HOP-62
OVCAR-5 = system: OVCAR-5
COLO 205 = system: COLO 205
M19-MEL = system: M19-MEL
RXF 393 = system: RXF 393
HOP-92 = system: HOP-92
SF-539 = system: SF-539
OVCAR-8 = system: OVCAR-8
U-251 = system: U-251
SNB-78 = system: SNB-78
Malme-3M = system: Malme-3M
OVCAR-3 = system: OVCAR-3
NCI-H23 = system: NCI-H23
786-0 = system: 786-0
DMS-114 = system: DMS-114
SF-295 = system: SF-295
ACHN = system: ACHN
CAKI-1 = system: CAKI-1
NCI-H522 = system: NCI-H522
MOLT-4 = system: MOLT-4
RPMI-8226 = system: RPMI-8226
CCRF-CEM = system: CCRF-CEM
SK-MEL-5 = system: SK-MEL-5
IGROV-1 = system: IGROV-1
HCT-15 = system: HCT-15
SR = system: SR
A498 = system: A498
UACC-62 = system: UACC-62
SK-OV-3 = system: SK-OV-3
XF498 = system: XF498

With `CC(C)=CCC/C(C)=C/CC/C(C)=C/CCC1(C)CCC([C@H](C)C(=O)O)OO1.CC1=C(CC/C(C)=C/CCC2(C)CCC([C@H](C)C(=O)O)OO2)C(C)(C)CCC1` (stereo partly drawn) the GI50 (HCC 2998) was 85.3 µM (inactive), the GI50 (LOX IMVI) was > 100 µM (inactive) and the GI50 (SNB-19) was > 100 µM (inactive). The GI50 (HL-60) was > 100 µM (inactive), the GI50 (NCI-H226) was > 100 µM (inactive) and the GI50 (LXFL 529) was > 100 µM (inactive). For the same molecule, the GI50 (SK-MEL-28) was > 100 µM (inactive), the GI50 (SNB-75) was > 100 µM (inactive) and the GI50 (NCI-H460) was > 100 µM (inactive). For the same molecule, the GI50 (KM12) was > 100 µM (inactive), the GI50 (SW-620) was > 100 µM (inactive) and the GI50 (EKVX) was > 100 µM (inactive). The GI50 (KM-20L2) was > 100 µM (inactive), the GI50 (HT-29) was > 100 µM (inactive) and the GI50 (A549) was > 100 µM (inactive). The GI50 (UO-31) was > 100 µM (inactive), the GI50 (TK-10) was > 100 µM (inactive) and the GI50 (DLD-1) was > 100 µM (inactive). For the same molecule, the GI50 (DMS-273) was > 100 µM (inactive), the GI50 (HCT-116) was > 100 µM (inactive) and the GI50 (OVCAR-4) was > 100 µM (inactive). The GI50 (UACC-257) was > 100 µM (inactive), the GI50 (SF-268) was > 100 µM (inactive) and the GI50 (SK-MEL-2) was > 100 µM (inactive). The GI50 (SN12C) was > 100 µM (inactive), the GI50 (M14) was > 100 µM (inactive) and the GI50 (HOP-62) was > 100 µM (inactive). The GI50 (OVCAR-5) was > 100 µM (inactive), the GI50 (COLO 205) was > 100 µM (inactive) and the GI50 (M19-MEL) was > 100 µM (inactive). For the same molecule, the GI50 (RXF 393) was > 100 µM (inactive), the GI50 (HOP-92) was > 100 µM (inactive) and the GI50 (SF-539) was > 100 µM (inactive). For the same molecule, the GI50 (OVCAR-8) was > 100 µM (inactive), the GI50 (U-251) was > 100 µM (inactive) and the GI50 (SNB-78) was > 100 µM (inactive). The GI50 (Malme-3M) was > 100 µM (inactive), the GI50 (OVCAR-3) was > 100 µM (inactive) and the GI50 (NCI-H23) was > 100 µM (inactive). For the same molecule, the GI50 (786-0) was > 100 µM (inactive), the GI50 (DMS-114) was > 100 µM (inactive) and the GI50 (SF-295) was > 100 µM (inactive). The GI50 (ACHN) was > 100 µM (inactive), the GI50 (CAKI-1) was > 100 µM (inactive) and the GI50 (NCI-H522) was > 100 µM (inactive).

For `CC(C)C(Sc1nc(-c2ccccc2)c(-c2ccccc2)[nH]1)c1n[nH]c(=S)n1-c1ccccc1` (stereo not drawn), the GI50 (MOLT-4) was 18 µM (inactive), the GI50 (HCC 2998) was 28.4 µM (inactive) and the GI50 (LOX IMVI) was 17.5 µM (inactive). For the same molecule, the GI50 (SNB-19) was 25 µM (inactive), the GI50 (RPMI-8226) was 21.2 µM (inactive) and the GI50 (HL-60) was 20.7 µM (inactive). The GI50 (NCI-H226) was 37.7 µM (inactive), the GI50 (CCRF-CEM) was 23.9 µM (inactive) and the GI50 (LXFL 529) was 18.5 µM (inactive). For the same molecule, the GI50 (SK-MEL-28) was 29.9 µM (inactive), the GI50 (SNB-75) was 66.5 µM (inactive) and the GI50 (NCI-H460) was 32.3 µM (inactive). The GI50 (KM12) was 16.1 µM (inactive), the GI50 (SW-620) was 23.4 µM (inactive) and the GI50 (EKVX) was 26.2 µM (inactive). The GI50 (KM-20L2) was 29.1 µM (inactive), the GI50 (HT-29) was 23.8 µM (inactive) and the GI50 (A549) was 33.7 µM (inactive). The GI50 (SK-MEL-5) was 17.7 µM (inactive), the GI50 (UO-31) was 22.8 µM (inactive) and the GI50 (TK-10) was 45 µM (inactive). The GI50 (DLD-1) was 41.5 µM (inactive), the GI50 (DMS-273) was 23.6 µM (inactive) and the GI50 (HCT-116) was 41.6 µM (inactive). The GI50 (OVCAR-4) was 35.5 µM (inactive), the GI50 (IGROV-1) was 26.4 µM (inactive) and the GI50 (UACC-257) was 31.7 µM (inactive). The GI50 (SF-268) was 29.4 µM (inactive), the GI50 (SK-MEL-2) was 20.4 µM (inactive) and the GI50 (HCT-15) was 50.5 µM. The GI50 (SN12C) was 37.2 µM (inactive), the GI50 (M14) was 19.2 µM (inactive) and the GI50 (HOP-62) was 44.6 µM (inactive). For the same molecule, the GI50 (OVCAR-5) was 24.7 µM (inactive), the GI50 (COLO 205) was 23.9 µM (inactive) and the GI50 (M19-MEL) was 17.5 µM (inactive). The GI50 (SR) was 32.2 µM (inactive), the GI50 (HOP-92) was 22.5 µM (inactive) and the GI50 (SF-539) was 22.4 µM (inactive). The GI50 (OVCAR-8) was 34.5 µM (inactive), the GI50 (U-251) was 22.9 µM (inactive) and the GI50 (SNB-78) was 46 µM (inactive). The GI50 (Malme-3M) was 21.2 µM (inactive), the GI50 (A498) was 43.3 µM (inactive) and the GI50 (OVCAR-3) was 19.6 µM (inactive). For the same molecule, the GI50 (NCI-H23) was 21.9 µM (inactive), the GI50 (786-0) was 30.8 µM (inactive) and the GI50 (SF-295) was 22.3 µM (inactive). For the same molecule, the GI50 (ACHN) was 29.6 µM (inactive), the GI50 (UACC-62) was 11.5 µM (inactive) and the GI50 (NCI-H522) was 21 µM (inactive). The GI50 (SK-OV-3) was 40.3 µM (inactive) and the GI50 (XF498) was 37.7 µM (inactive).
